“And” between values parts separate entries of the source, which are not always exact repeats. Equal values may be shown once. Toxic doses and inconclusive results are not listed.
Test system: P388 leukemia ip, CD2F1 mice, survival T/C
Assay: NCI In Vivo Anticancer Drug Screen. Data for tumor model P388 Leukemia (intraperitoneal) in CD2F1 (CDF1) mice
Conditions: endpoint: median survival time, higher = longer survival
Procedure, shortened: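 Mice carrying the transplanted tumor received test compound or vehicle. Survival was recorded in each group, and the value is the treated-group measurement divided by that of the vehicle-treated control group.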

[1] = dose: 50.0 mg/kg/injection, schedule: Q01DX009 (ip), vehicle: saline with Tween-80
[2] = dose: 100.0 mg/kg/injection, schedule: Q01DX009 (ip), vehicle: saline with Tween-80
[3] = dose: 200.0 mg/kg/injection, schedule: Q01DX009 (ip), vehicle: saline with Tween-80
[4] = dose: 50.0 mg/kg/injection, schedule: Q01DX009 (ip), vehicle: Klucel (hydroxypropylcellulose) (HPC)
[5] = dose: 100.0 mg/kg/injection, schedule: Q01DX009 (ip), vehicle: Klucel (hydroxypropylcellulose) (HPC)
[6] = dose: 200.0 mg/kg/injection, schedule: Q01DX009 (ip), vehicle: Klucel (hydroxypropylcellulose) (HPC)
[7] = dose: 50.0 mg/kg/injection, schedule: Q01DX005 (ip), vehicle: saline with Tween-80
[8] = dose: 100.0 mg/kg/injection, schedule: Q01DX005 (ip), vehicle: saline with Tween-80
[9] = dose: 200.0 mg/kg/injection, schedule: Q01DX005 (ip), vehicle: saline with Tween-80
[10] = dose: 25.0 mg/kg/injection, schedule: Q01DX009 (ip), vehicle: Klucel (hydroxypropylcellulose) (HPC)
[11] = dose: 60.0 mg/kg/injection, schedule: Q01DX005 (ip), vehicle: saline with Tween-80
[12] = dose: 120.0 mg/kg/injection, schedule: Q01DX005 (ip), vehicle: saline with Tween-80
[13] = dose: 240.0 mg/kg/injection, schedule: Q01DX005 (ip), vehicle: saline with Tween-80
[14] = dose: 50.0 mg/kg/injection, schedule: Q01DX009 (ip), vehicle: saline
[15] = dose: 100.0 mg/kg/injection, schedule: Q01DX009 (ip), vehicle: saline
[16] = dose: 200.0 mg/kg/injection, schedule: Q01DX009 (ip), vehicle: saline

## O=C1c2cc3ccccc3cc2NC(O)c2cccn21 (centres undefined)
dose: 0.1 mg/kg/injection, schedule: Q01DX005 (ip), vehicle: water
  T/C: 96 % of control
dose: 0.2 mg/kg/injection, schedule: Q01DX005 (ip), vehicle: water
  T/C: 91 % of control
dose: 0.4 mg/kg/injection, schedule: Q01DX005 (ip), vehicle: water
  T/C: 100 % of control
dose: 0.8 mg/kg/injection, schedule: Q01DX005 (ip), vehicle: water
  T/C: 107 % of control
dose: 1.6 mg/kg/injection, schedule: Q01DX005 (ip), vehicle: water
  T/C: 116 % of control
dose: 5.0 mg/kg/injection, schedule: Q01DX005 (ip), vehicle: distilled water + Tween-80
  T/C: 100 % of control
dose: 10.0 mg/kg/injection, schedule: Q01DX005 (ip), vehicle: distilled water + Tween-80
  T/C: 107 % of control
dose: 20.0 mg/kg/injection, schedule: Q01DX005 (ip), vehicle: distilled water + Tween-80
  T/C: 100 % of control
dose: 40.0 mg/kg/injection, schedule: Q01DX005 (ip), vehicle: distilled water + Tween-80
  T/C: 99 % of control
dose: 80.0 mg/kg/injection, schedule: Q01DX005 (ip), vehicle: distilled water + Tween-80
  T/C: 101 % of control

## O=C(N/N=C/c1ccc(/C=N/NC(=O)c2cccnc2)cc1)c1cccnc1
[1]
  T/C: 102 % of control
[2]
  T/C: 96 % of control
[3]
  T/C: 93 % of control

## CN(C)c1cc(N(C)C)c2cc(C#N)ccc2n1
[4]
  T/C: 99 % of control
[5]
  T/C: 98 % of control
[6]
  T/C: 107 % of control

## CC1(C)N=C(Oc2cc(Cl)cc(Cl)c2)NC(=S)N1
dose: 60.0 mg/kg/injection, schedule: Q01DX005 (ip), vehicle: DMSO
  T/C: 109 % of control
dose: 120.0 mg/kg/injection, schedule: Q01DX005 (ip), vehicle: DMSO
  T/C: 100 % of control
dose: 240.0 mg/kg/injection, schedule: Q01DX005 (ip), vehicle: DMSO
  T/C: 97 % of control

## CCOC(=O)c1ccc(NC(=O)Nc2nc(C)cs2)cc1
dose: 12.5 mg/kg/injection, schedule: Q01DX009 (ip), vehicle: distilled water + Tween-80
  T/C: 104 % of control and 106 % of control
dose: 25.0 mg/kg/injection, schedule: Q01DX009 (ip), vehicle: distilled water + Tween-80
  T/C: 99 % of control and 107 % of control
dose: 50.0 mg/kg/injection, schedule: Q01DX009 (ip), vehicle: distilled water + Tween-80
  T/C: 109 % of control and 111 % of control
dose: 100.0 mg/kg/injection, schedule: Q01DX009 (ip), vehicle: distilled water + Tween-80
  T/C: 118 % of control

## CCOC(=O)NC(NC(=O)OCC)c1cccnc1
dose: 200.0 mg/kg/injection, schedule: Q04DX003 (ip), vehicle: saline
  T/C: 94 % of control
dose: 400.0 mg/kg/injection, schedule: Q04DX003 (ip), vehicle: saline
  T/C: 101 % of control

## Cc1nn(C(N)=S)c(C)c1N=Nc1ccc(O)cc1
[7]
  T/C: 103 % of control
[8]
  T/C: 103 % of control
[9]
  T/C: 107 % of control

## CCn1c(=O)c2[nH]c(I)nc2n(CC)c1=O
[10]
  T/C: 99 % of control
[4]
  T/C: 99 % of control
[5]
  T/C: 106 % of control

## CCOC(=O)c1sc(C(=O)OCC)c2c1-c1cccc3cccc-2c13
[11]
  T/C: 100 % of control
[12]
  T/C: 99 % of control
[13]
  T/C: 97 % of control

## CC(N)P(=O)(O)O (centres undefined)
dose: 25.0 mg/kg/injection, schedule: Q01DX009 (ip), vehicle: saline
  T/C: 100 % of control
[14]
  T/C: 115 % of control
[15]
  T/C: 104 % of control and 87 % of control
[16]
  T/C: 106 % of control and 86 % of control

## CCO/C=C1/N=C(Cc2ccccc2)OC1=O
dose: 60.0 mg/kg/injection, schedule: Q01DX005 (ip), vehicle: saline + Tween-80 + alcohol
  T/C: 100 % of control
dose: 120.0 mg/kg/injection, schedule: Q01DX005 (ip), vehicle: saline + Tween-80 + alcohol
  T/C: 94 % of control

## CC(NNC(=S)N1CCN(c2ccccn2)CC1)c1ccccn1 (centres undefined)
dose: 12.5 mg/kg/injection, schedule: Q01DX005 (ip), vehicle: Klucel (hydroxypropylcellulose) (HPC)
  T/C: 99 % of control
dose: 25.0 mg/kg/injection, schedule: Q01DX005 (ip), vehicle: Klucel (hydroxypropylcellulose) (HPC)
  T/C: 101 % of control
dose: 50.0 mg/kg/injection, schedule: Q01DX005 (ip), vehicle: Klucel (hydroxypropylcellulose) (HPC)
  T/C: 109 % of control and 95 % of control

## CC(C)=CCC/C(C)=C/COc1cc(O)c2c(O)c3c(cc2c1)CC(C)(O)CC3=O (centres undefined)
dose: 6.25 mg/kg/injection, schedule: Q01DX009 (ip), vehicle: saline + Tween-80 + alcohol
  T/C: 107 % of control
dose: 12.5 mg/kg/injection, schedule: Q01DX009 (ip), vehicle: saline + Tween-80 + alcohol
  T/C: 105 % of control
dose: 25.0 mg/kg/injection, schedule: Q01DX009 (ip), vehicle: saline + Tween-80 + alcohol
  T/C: 107 % of control

## Nc1nnc(-c2cc([N+](=O)[O-])cc([N+](=O)[O-])c2)o1
[11]
  T/C: 108 % of control
[12]
  T/C: 94 % of control
[13]
  T/C: 100 % of control

## CN1C2=C(C(=O)CC2)C(c2ccccc2)C2=C1CCC2=O
dose: 100.0 mg/kg/injection, schedule: Q01DX001 (ip), vehicle: saline with Tween-80
  T/C: 96 % of control
dose: 200.0 mg/kg/injection, schedule: Q01DX001 (ip), vehicle: saline with Tween-80
  T/C: 96 % of control
dose: 400.0 mg/kg/injection, schedule: Q01DX001 (ip), vehicle: saline with Tween-80
  T/C: 96 % of control

## COc1ccc(Cc2ccccc2CO)c2ccccc12
dose: 100.0 mg/kg/injection, schedule: Q01DX001 (ip), vehicle: Klucel (hydroxypropylcellulose) (HPC)
  T/C: 100 % of control
dose: 200.0 mg/kg/injection, schedule: Q01DX001 (ip), vehicle: Klucel (hydroxypropylcellulose) (HPC)
  T/C: 100 % of control
dose: 400.0 mg/kg/injection, schedule: Q01DX001 (ip), vehicle: Klucel (hydroxypropylcellulose) (HPC)
  T/C: 100 % of control

## O=C(O)CCc1c2ccc(=O)c(O)c-2oc2c(O)c(O)ccc12
[11]
  T/C: 104 % of control
[12]
  T/C: 98 % of control
[13]
  T/C: 103 % of control

## CSc1nc(N)c(C(=O)Nc2ccc3ccccc3c2)s1
[4]
  T/C: 107 % of control
[5]
  T/C: 98 % of control
[6]
  T/C: 99 % of control

## O=C(N/N=C\c1ccc(N(CCCl)CCCl)cc1)c1cccnc1
dose: 12.5 mg/kg/injection, schedule: Q01DX009 (ip), vehicle: Klucel (hydroxypropylcellulose) (HPC)
  T/C: 107 % of control
[10]
  T/C: 107 % of control

## CC1CCN(P(=O)(N(C)C)N(C)C)CC1
[14]
  T/C: 98 % of control
[15]
  T/C: 96 % of control
[16]
  T/C: 88 % of control

## Cc1cc(=O)oc2cc(NCS(=O)(=O)O)ccc12
dose: 50.0 mg/kg/injection, schedule: Q01DX005 (ip), vehicle: saline
  T/C: 100 % of control
dose: 100.0 mg/kg/injection, schedule: Q01DX005 (ip), vehicle: saline
  T/C: 98 % of control
dose: 200.0 mg/kg/injection, schedule: Q01DX005 (ip), vehicle: saline
  T/C: 97 % of control

## CC(=O)C[n+]1cccc(C)c1Sc1ccccc1
dose: 12.5 mg/kg/injection, schedule: Q01DX005 (ip), vehicle: saline with Tween-80
  T/C: 97 % of control
dose: 25.0 mg/kg/injection, schedule: Q01DX005 (ip), vehicle: saline with Tween-80
  T/C: 101 % of control
[7]
  T/C: 108 % of control and 94 % of control

## O=C1NC2(CCCCC2)C(=O)N1CCCN1C(=O)NC2(CCCCC2)C1=O
[11]
  T/C: 107 % of control
[12]
  T/C: 102 % of control
[13]
  T/C: 101 % of control

## Nc1ccc(S(=O)(=O)n2c(=O)oc3cc(Br)ccc32)cc1
dose: 25.0 mg/kg/injection, schedule: Q04DX002 (ip), vehicle: Klucel (hydroxypropylcellulose) (HPC)
  T/C: 99 % of control
dose: 50.0 mg/kg/injection, schedule: Q04DX002 (ip), vehicle: Klucel (hydroxypropylcellulose) (HPC)
  T/C: 99 % of control
dose: 100.0 mg/kg/injection, schedule: Q04DX002 (ip), vehicle: Klucel (hydroxypropylcellulose) (HPC)
  T/C: 100 % of control and 93 % of control

## CC1(C)CC2(Nc3ccccc3N2)C2=C(O1)C(=O)OC2
[11]
  T/C: 101 % of control
[12]
  T/C: 103 % of control
[13]
  T/C: 92 % of control

## CC1(C)CC(O)C2OC2C1 (centres undefined)
[7]
  T/C: 101 % of control
[8]
  T/C: 108 % of control
[9]
  T/C: 106 % of control

## COc1cccc2c1C(=O)c1c(O)c3c(c(O)c1C2=O)C[C@@](O)(C(=O)CSc1nnc(C)s1)C[C@@H]3OC1CC(N)C(O)C(C)O1 (some centres undefined)
dose: 6.25 mg/kg/injection, schedule: Q01DX009 (ip), vehicle: water
  T/C: 154 % of control
dose: 12.5 mg/kg/injection, schedule: Q01DX009 (ip), vehicle: water
  T/C: 155 % of control and 158 % of control

## CNC(=O)c1ccccc1C(O)c1ccc(C)cc1 (centres undefined)
[1]
  T/C: 105 % of control
[2]
  T/C: 99 % of control
[3]
  T/C: 99 % of control

— PubChem BioAssay AID330 (DTP/NCI, 2004)
